# Measured values as given in US9561201B2, “Therapeutic compounds” (Fibrotech Therapeutics Pty Ltd, priority 2006, dated 2017).
# Tested on: neonatal SD rat cardiac fibroblasts
# Assay: Angiotensin II-stimulated fibrosis (proline incorporation) in neonatal cardiac fibroblasts (Example 4)
# Format: cell-based
# Protocol: Matrix synthesis may be stimulated by both angiotensin II or transforming growth factor beta (TGF-β).
# Neonatal SD rat cardiac fibroblasts (NCFs) were isolated from one-day-old pups with enzymatic digestion. NCFs were purified by percoll gradient and seeded with DMEM in the present of 1% antibiotic/antimycotic (AB/AM) and 10% fatal bovine serum (FBS). NCFs were then subcultured when they are about 80% confluence. The second passage of NCFs was used for the assays.
# NCFs were seeded at 25,000 cells/well in 12-well plates and incubated at 37° C. and 5% CO2 overnight in DMEM with 1% AB/AM and 10% FBS. Cells were then washed with DMEM and then the media replaced with DMEM/F12 with 1% AB/AM, 0.5% Bovine Serum Albumin (BSA) and Vitamin C, before being incubated at 37° C. and 5% CO2 for 24 hours.
# The effect of FT011 on TGF-β- or angiotensin II-stimulated fibrosis in the neonatal SD rat cardiac fibroblasts was investigated.
compound,measurement,value
C#CCOc1ccc(/C=C/C(=O)Nc2ccccc2C(=O)O)cc1OC [Analogue 11],angiotensin II-stimulated fibrosis (proline incorporation),inhibited
